In US5573908A, “Adrenergic receptor as a proto-oncogene” (Duke University, priority 1993, dated 1996):
Changes are numbered by the printed parent chain. Several values for one entry are separate records, joined by “and”; a condition that tells them apart may be missing. Equal values may be shown once.

How the values were obtained:
[1] = system: NIH 3T3 fibroblasts transfected with expression vector alone; experiment: Focus formation in NIH 3T3 fibroblasts transfected with expression vector alone; format: cell-based; conditions: NIH 3T3 transfected with vector alone; 10 μM NE supplemented daily, 5% FBS (Table 1)
α1B ADR mutant = molecular target: T1, α1B ADR mutant (Mesocricetus auratus, UniProt P18841, A293L/K290H/R288K); experiment: NE stimulated PI hydrolysis in RAT-1 cell lines expressing the α1B ADR mutant; format: cell-based, hamster
T1 construct: expressed in transfected cells; host or cells: RAT-1 fibroblasts (vector pZIP-NeoSV(X)1), focus-derived, G418-selected lines
T1 sequence (P18841 1-515 R288K/K290H/A293L): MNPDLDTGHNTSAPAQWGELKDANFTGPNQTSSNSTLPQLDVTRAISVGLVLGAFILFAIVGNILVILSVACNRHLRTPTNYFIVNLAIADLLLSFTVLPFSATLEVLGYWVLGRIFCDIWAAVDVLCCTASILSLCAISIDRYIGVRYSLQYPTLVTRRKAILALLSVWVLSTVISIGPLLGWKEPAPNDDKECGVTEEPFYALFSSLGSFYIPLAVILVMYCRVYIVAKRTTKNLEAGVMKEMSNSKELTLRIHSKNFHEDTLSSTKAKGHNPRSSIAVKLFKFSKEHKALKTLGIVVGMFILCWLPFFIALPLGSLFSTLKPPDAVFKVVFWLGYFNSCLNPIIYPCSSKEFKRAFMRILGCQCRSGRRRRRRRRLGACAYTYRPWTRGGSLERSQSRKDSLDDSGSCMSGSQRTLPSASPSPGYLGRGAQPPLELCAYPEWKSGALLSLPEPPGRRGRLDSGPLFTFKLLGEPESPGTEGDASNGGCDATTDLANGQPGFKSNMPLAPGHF
Method: (§1) In Table 3, RAT-1 fibroblast cell lines transfected with expression vector alone or derived from transformed foci (α1B ADR or α1B ADR mutant) were selected with G418 (300 μg/ml). Ligand binding was performed on membranes prepared from two clones of each in accordance with known techniques (S. Cotecchia et al., Life Sci. 37, 2389 (1986)). For saturation binding analysis, [^125 ] HEAT concentrations ranged from 10 to 500 pM, nonspecific binding was determined using 1 μM prazosin; in competition experiments, the radioligand concentration was 100 pM. Ligand binding parameters were determined using computerized iterative nonlinear regression analysis (P. Munson, Methods in Enzymol. 92, 5432 (1983)). For assessment of receptor coupling to PI hydrolysis, cells were plated in 30 mm dishes, and labeled overnight with 3 μCi/ml of myo-[2-^3 II(N)]-inositol (1Ci=37 GBq; NEN Research Products) in DMEM containing 3.3% FBS in accordance with known techniques (S. Cotecchia et al., Proc. Natl. Acad. Sci. USA 87, 2896 (1990)). After 40 minute stimulation of cells with 10 μM norepinephrine (NE), inositol phosphates were extracted, and separated on AG 1-X8 anion exchange columns (BioRad Labs) in accordance with known techniques (S. Cotecchia et al., Proc. Natl. Acad. Sci. USA 87, 2896 (1990)). Total inositol phosphates were eluted with 1M ammonium formate/0.1M formic acid. […]

α1B ADR = molecular target: T2, α1B ADR (Mesocricetus auratus, UniProt P18841); experiment: NE stimulated PI hydrolysis in RAT-1 cell lines expressing the α1B ADR; format: cell-based, hamster
T2 construct: expressed in transfected cells; host or cells: RAT-1 fibroblasts (vector pZIP-NeoSV(X)1), focus-derived, G418-selected lines
T2 sequence (P18841 1-515): T1 sequence (P18841 1-515 R288K/K290H/A293L) with K288R, H290K, L293A
Method: as §1

[2] = system: RAT-1 fibroblasts transfected with α1B -ADR c-DNA; experiment: Focus formation in RAT-1 fibroblasts transfected with α1B-ADR c-DNA; format: cell-based
Method: Transfection was carried out as follows: RAT-1 fibroblasts were seeded at a density of 2×10^5 cells in Dulbecco's modified Eagle's medium (DMEM) (Gibco) containing 5% fetal bovine serum (FBS) in 100 mm dishes. […] After 16 hours, the DNA precipitate was removed, the cells washed and grown for 24 hours in complete medium. Cells were split 1:5, allowed to attach overnight and then cultured in DMEM with 5% FBS alone, supplemented with 10 μM norepinephrine (NE) or G418 (300 μg/ml). Dishes were supplemented with NE daily, and fed every 3 days with fresh medium.

[3] = 10 μM NE, 40 minute, increase of total labeled inositol phosphates over basal, two clones

## NC[C@H](O)c1ccc(O)c(O)c1 [NE, norepinephrine]
[1]
  Foci No. +NE: 12
α1B ADR mutant; [3]
  NE Stimulated PI Hydrolysis Rmax: 861 % increase and 954 % increase
α1B ADR mutant; cell lines expressing the α1B-ADR mutant
  increase in inositol phosphates induced by NE: 900 to 1000%
α1B ADR; [3]
  NE Stimulated PI Hydrolysis Rmax: 758 % increase and 410 % increase
α1B ADR; focus-derived fibroblasts expressing α1B-ADR
  increase in total inositol phosphates following NE stimulation: 400 to 800%
[2]; RAT-1, relative to number of G418 resistant colonies (40-60/dish)
  Agonist-induced foci as share of transfected clones: 15-25%
[2]; RAT-1 transfected with α1B ADR, 10 μM NE supplemented daily, 5% FBS, initially transfected cells (Table 1)
  Foci No. +NE: 8
[2]; focus derived RAT-1 cell lines, α1B ADR, 10 μM NE, 3 weeks of growth, two clones (Table 2)
  Foci No. +NE: 75 and 80
